Drawing on patent USRE47739E1, “2-(pyridin-2-ylamino)-pyrido[2,3-D]pyrimidin-7-ones” (Warner-Lambert Company LLC, priority 2002, dated 2019), this text covers IC50 for twelve compounds.

Format in all cases: biochemical
One test addresses Cdk2/Cyclin A (Homo sapiens, UniProt P24941). The test can be described thus: Assay for Inhibition of Cdk2/Cyclin A. The following applies: 12 mM ATP (so in the source), retinoblastoma protein substrate, 25° C., 15 minutes. As for the experimental part:
(§1) The assays were carried out as described below.
Assay for Inhibition of Cdk2/Cyclin A
Cdk2 enzyme assays for IC50 determinations and kinetic evaluation are performed as follows. 96-well filter plates (Millipore MADVN6550) are used. […] All components except the ATP are added to the wells, and the plate is placed on a plate mixer for 2 minutes. The reaction is initiated by addition of [^32P]ATP, and the plate is incubated at 25° C. for 15 minutes. The reaction is terminated by addition of 0.1 mL 20% TCA. The plate is kept at 4° C. for at least 1 hour to allow the substrate to precipitate. The wells are then washed five times with 0.2 mL 10% TCA, and ^32P incorporation is determined with a beta plate counter (Wallac Inc., Gaithersburg, Md.).

Another test has as its target Cdk4/Cyclin D (Homo sapiens, UniProt P11802). The test can be described thus: Assay for Inhibition of Cdk4/Cyclin D. The following applies: 25 μM ATP, retinoblastoma protein substrate, 25° C., 15 minutes. As for the experimental part: as §1
Assay for Inhibition of Cdk4/Cyclin D
The Cdk4 enzyme assay for IC50 determination and kinetic evaluation is performed as follows. 96-well filter plates (Millipore MADVN6550) are used. […] Buffer A containing excess EDTA was used to determine the level of background ^32P in the absence of enzyme activity. All components except the ATP are added to the wells, and the plate is placed on a plate mixer for 2 minutes. The reaction is started by adding [^32P]ATP, and the plate is incubated at 25° C. for 15 minutes. The reaction is terminated by addition of 0.1 mL 20% trichloroacetic acid (TCA). The plate is kept at 4° C. for at least 1 hour to allow the substrate to precipitate. The wells are then washed five times with 0.2 mL 10% TCA, and ^32P incorporation is determined with a beta plate counter (Wallac Inc., Gaithersburg, Md.).

Test [1] addresses FGF receptor (FGFr) tyrosine kinase (Homo sapiens, UniProt P11362). The test can be described thus: Assay for Inhibition of FGFr. Conditions: 50 μM ATP, Poly (4:1) glutamate-tyrosine substrate, 25° C. The method, then: as §1
Assay for Inhibition of FGFr
For FGF receptor (FGFr) tyrosine kinase assays 96-well plates (100 μL/incubation/well), and conditions are optimized to measure the incorporation of ^32P from [γ^32P]ATP into a glutamate-tyrosine co-polymer substrate. Briefly, to each well is added 82.5 μL incubation buffer B (25 mM Hepes (pH 7.0), 150 mM NaCl, 0.1% Triton X-100, 0.2 mM PMSF, 0.2 mM Na3VO4, 10 mM MnCl2) and 750 μg/mL Poly (4:1) glutamate-tyrosine followed by 2.5 μL of the test compound in buffer B and 5 μL of a 7.5 μg/μL FGFr solution to initiate the reaction. Following a 10-minute incubation at 25° C., […] [γ^32P]ATP (0.4 μCi plus 50 μM ATP) is added to each well, and samples are incubated for an additional 10 minutes at 25° C. The reaction is terminated by the addition of 100 μL 30% trichloroacetic acid (TCA) containing 20 mM sodium pyrophosphate and precipitation of material onto glass fiber mats (Wallac). […] Nonspecific activity is defined as radioactivity retained on the filters following incubation of samples with buffer alone (no enzyme). Specific enzymatic activity (enzyme plus buffer) is defined as total activity minus nonspecific activity.

Counter-ions that a name gives are not always drawn.

Chain of FGF receptor (FGFr) tyrosine kinase (P11362 22-822): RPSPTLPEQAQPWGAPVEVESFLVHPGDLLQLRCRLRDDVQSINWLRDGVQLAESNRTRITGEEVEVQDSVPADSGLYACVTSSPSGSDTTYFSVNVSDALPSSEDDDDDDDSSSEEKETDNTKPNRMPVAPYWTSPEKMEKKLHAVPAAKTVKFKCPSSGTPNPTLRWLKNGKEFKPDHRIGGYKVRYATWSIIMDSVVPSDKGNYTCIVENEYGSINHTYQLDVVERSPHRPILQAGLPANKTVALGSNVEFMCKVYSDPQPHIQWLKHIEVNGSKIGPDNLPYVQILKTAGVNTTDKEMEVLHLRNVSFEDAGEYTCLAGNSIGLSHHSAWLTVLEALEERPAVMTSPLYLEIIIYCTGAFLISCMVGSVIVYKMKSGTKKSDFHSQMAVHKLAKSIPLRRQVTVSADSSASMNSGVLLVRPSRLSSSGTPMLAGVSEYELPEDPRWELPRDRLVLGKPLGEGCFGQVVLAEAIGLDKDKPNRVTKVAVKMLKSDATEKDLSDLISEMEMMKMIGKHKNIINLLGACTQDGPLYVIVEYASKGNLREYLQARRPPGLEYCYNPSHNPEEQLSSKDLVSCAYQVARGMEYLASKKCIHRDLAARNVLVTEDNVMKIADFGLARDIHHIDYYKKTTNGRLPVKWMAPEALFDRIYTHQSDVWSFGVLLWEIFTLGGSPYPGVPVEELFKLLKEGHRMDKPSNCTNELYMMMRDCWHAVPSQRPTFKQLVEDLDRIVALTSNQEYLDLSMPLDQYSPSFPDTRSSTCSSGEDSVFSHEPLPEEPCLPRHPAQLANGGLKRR
Chain of Cdk4/Cyclin D (P11802 whole entry, species assumed): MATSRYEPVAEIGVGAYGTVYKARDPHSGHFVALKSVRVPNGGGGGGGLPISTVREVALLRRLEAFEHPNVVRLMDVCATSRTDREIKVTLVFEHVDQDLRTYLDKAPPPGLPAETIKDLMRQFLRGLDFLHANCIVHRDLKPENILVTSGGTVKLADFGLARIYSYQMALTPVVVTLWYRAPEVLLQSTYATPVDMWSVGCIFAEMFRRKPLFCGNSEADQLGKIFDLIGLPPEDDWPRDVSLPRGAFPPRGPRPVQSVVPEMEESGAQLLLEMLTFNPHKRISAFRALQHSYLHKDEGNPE
Chain of Cdk4/Cyclin D (P24385 whole entry partner, species assumed): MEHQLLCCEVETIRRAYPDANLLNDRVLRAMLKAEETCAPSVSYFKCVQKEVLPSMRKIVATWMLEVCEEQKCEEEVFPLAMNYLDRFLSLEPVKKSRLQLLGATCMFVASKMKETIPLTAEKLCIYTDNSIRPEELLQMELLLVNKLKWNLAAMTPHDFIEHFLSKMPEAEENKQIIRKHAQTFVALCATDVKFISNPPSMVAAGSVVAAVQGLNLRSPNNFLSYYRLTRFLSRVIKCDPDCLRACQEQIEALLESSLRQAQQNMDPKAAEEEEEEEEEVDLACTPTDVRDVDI

Take `O=c1ccc2cnc(Nc3ccc(N4CCNCC4)cn3)nc2n1C1CCCCC1` [Example 61, 8-cyclohexyl-2-(5-piperazin-1-yl-pyridin-2-ylamino)-8H-pyrido[2,3-d]pyrimidin-7-one]: the IC50 against Cdk2/Cyclin A stood at 0.835 µM; against Cdk4/Cyclin D, 0.013 µM; in test [1], 1.38 µM.
As for `O=c1ccc2cnc(Nc3ccccc3)nc2n1C1CCCC1` [1′, reference compound], at Cdk2/Cyclin A, the IC50 came to 0.021 µM.
With `CCOCc1cc2cnc(Nc3ccc(N4CCCCC4)cn3)nc2n(C2CCCC2)c1=O` [Example 124, 8-Cyclopentyl-6-ethoxymethyl-2-(3,4,5,6-tetrahydro-2H-[1,3]bipyridinyl-6′-ylamino)-8H-pyrido[2,3-d]pyrimidin-7-one], the IC50 against Cdk2/Cyclin A is greater than 5 µM; against Cdk4/Cyclin D, 0.545 µM.
As to `Cc1c(Br)c(=O)n(C2CCCC2)c2nc(Nc3ccc(N4CCOCC4)cn3)ncc12` [Example 98, 6-Bromo-8-cyclopentyl-5-methyl-2-(5-morpholin-4-yl-pyridin-2-ylamino)-8H-pyrido[2,3-d]pyrimidin-7-one], the IC50 was 1.95 µM against Cdk4/Cyclin D and greater than 5 µM in test [1].
As for `CCc1cc2cnc(Nc3ccc(N4CCC(O)CC4)cn3)nc2n(C2CCCC2)c1=O` [Example 51, 8-Cyclopentyl-6-ethyl-2-(4-hydroxy-3,4,5,6-tetrahydro-2H-[1,3′]bipyridinyl-6′-ylamino)-8H-pyrido [2,3-d]pyrimidin-7-one], the values for the IC50 at Cdk2/Cyclin A and at Cdk4/Cyclin D were greater than 5 µM and 0.135 µM, respectively.
Turning to `O=c1c(CO)cc2cnc(Nc3ccc(N4CCNCC4)cn3)nc2n1C1CCCC1` [Example 29, 8-Cyclopentyl-6-hydroxymethyl-2-(5-piperazin-1-yl-pyridin-2-ylamino)-8H-pyrido[2,3-d]pyrimidin-7-one hydrochloride], the IC50 against Cdk4/Cyclin D is 0.013 µM; in test [1], 4.38 µM.
On the same counts, the results for `O=c1c(Br)cc2cnc(Nc3ccccn3)nc2n1C1CCCC1` [Example 38, 6-Bromo-8-cyclopentyl-2-(Pyridin-2-ylamino)-8H-pyrido[2,3-]pyrimidin-7-one] are 0.95 µM and greater than 5 µM.
`CC(=O)c1c(C)c2cnc(Nc3ccc(N4CCNC(C)(C)C4)cn3)nc2n(C2CCCC2)c1=O` [Example 90, 6-Acetyl-8-cyclopentyl-2-[5-(3,3-dimethyl-piperazin-1-yl)-pyridin-2-ylamino]-5-methyl-8H-pyrido[2,3-d]pyrimidin-7-one]: the IC50 against Cdk4/Cyclin D was 0.021 µM; in test [1], greater than 5 µM.
For the compound `CC(=O)c1c(C)c2cnc(Nc3ccc(N4CCCNCC4)cn3)nc2n(C2CCCC2)c1=O` [Example 81, 6-Acetyl-8-cyclopentyl-2-(5-[1,4]diazepan-1-yl-pyridin-2-ylamino)-5-methyl-8H-pyrido[2,3-d]pyrimidin-7-one], the IC50 on Cdk4/Cyclin D was 0.012 µM; in test [1] it was greater than 5 µM.
Take `CC(=O)c1c(C)c2cnc(Nc3ccc(N4CC(C)OC(C)C4)cn3)nc2n(C2CCCC2)c1=O` (stereo not drawn) [Example 130, 6-Acetyl-8-cyclopentyl-2-[5-(2,6-dimethyl-morpholin-4-yl)-pyridin-2-ylamino]-5-methyl-8H-pyrido[2,3-d]pyrimidin-7-one]: the IC50 against Cdk4/Cyclin D is 0.03 µM; in test [1], greater than 5 µM.
As to `CC(C)n1c(=O)ccc2cnc(Nc3ccc(N4CCNCC4)cn3)nc21` [Example 57, 8-isopropyl-2-(5-piperazin-1-yl-pyridin-2-ylamino)-8H-pyrido[2.3-d]pyrimidin-7-one], the IC50 (against Cdk4/Cyclin D; in test [1]) was greater than 5 µM throughout.
`Cc1c(Br)c(=O)n(C2CCCC2)c2nc(Nc3cccc(N)n3)ncc12` [Example 66, 2-(6-amino-pyridin-2-ylamino)-6-bromo-8-cyclopentyl-5-methyl-8H-pyrido[2,3-d]pyrimidin-7-one]: the IC50 on Cdk2/Cyclin A is greater than 5 µM; at Cdk4/Cyclin D, 0.763 µM.
